# Test results: patent publication US20230312582A1, “Salts Of Nitrogen-Containing Heterocyclic Compound, And Solid Forms Of Salts, Pharmaceutical Composition And Use Thereof” (Wuhan Humanwell Innovative Drug Research And Development …, priority 2020, published 2023)
# Read-outs that look alike come from different tables or passages of the source.
# What was measured:
# [1] = molecular target: Autotaxin enzyme (Homo sapiens (Human), UniProt Q13822); settings: read-out: IC50 against ATX enzymatic activity; Autotaxin Inhibitor Screening Assay Kit, 37° C., 30 min, OD405
# Procedure: The inhibitory activity of the compound against the Autotaxin enzyme was detected using the Autotaxin Inhibitor Screening Assay Kit (Cayman, 700580). The compound to be tested was first prepared into 10 mM stock solution in DMSO solvent, and then serially diluted into 8 concentrations of compound with DMSO. Subsequently, 8 concentrations of compound were diluted to 19× compound working solution (with DMSO content of 1.9%) with an Autotaxin Assay buffer (1×) provided in the kit. Autotaxin Assay Reagent (10×) was taken out and diluted 10-fold with Autotaxin Assay Buffer (1×). The Autotaxin Substrate was taken out, and added with 1.2 mL of Autotaxin Assay Buffer (1×) for dissolving. The mixture was mixed well and then let stand at room temperature. In a 96-well plate, 150 μL of Autotaxin Assay Buffer (1×), 10 μL of diluted 19× compound working solution, 10 μL of Autotaxin Assay Reagent (1×), 20 μL of dissolved Autotaxin Substrate were added into wells at each concentration, and then the mixture was mixed well, incubated at 37° C. on a constant-temperature shaking shaker, and incubated in the dark for 30 min.
# [2] = Stability assay of human liver microsome; format: in vitro ADME; settings: human liver microsomes
# Procedure: The stability of human liver microsome was detected by in vitro co-incubation of compounds with human liver microsomes. Test compounds were first prepared as 10 mM stock solutions in DMSO solvent, followed by dilution of the compounds to 0.5 mM using acetonitrile. […] The deep-well plate was taken, […] was added to each well, then 15 μL of pre-warmed 6 mM NADPH solution was added to the plate to start the reaction, and the plate was incubated at 37° C. […] The supernatant was taken after centrifugation, and added with purified water at a ratio of 1:1 for LC-MS/MS detection to obtain the ratio of peak area of compound to peak area of internal standard at each time point. […] T1/2 was calculated using Excel.
# [3] = molecular target: T1, hERG channel (Homo sapiens (Human), UniProt Q12809); assay: cell-based
# T1 sequence (Q12809 whole entry): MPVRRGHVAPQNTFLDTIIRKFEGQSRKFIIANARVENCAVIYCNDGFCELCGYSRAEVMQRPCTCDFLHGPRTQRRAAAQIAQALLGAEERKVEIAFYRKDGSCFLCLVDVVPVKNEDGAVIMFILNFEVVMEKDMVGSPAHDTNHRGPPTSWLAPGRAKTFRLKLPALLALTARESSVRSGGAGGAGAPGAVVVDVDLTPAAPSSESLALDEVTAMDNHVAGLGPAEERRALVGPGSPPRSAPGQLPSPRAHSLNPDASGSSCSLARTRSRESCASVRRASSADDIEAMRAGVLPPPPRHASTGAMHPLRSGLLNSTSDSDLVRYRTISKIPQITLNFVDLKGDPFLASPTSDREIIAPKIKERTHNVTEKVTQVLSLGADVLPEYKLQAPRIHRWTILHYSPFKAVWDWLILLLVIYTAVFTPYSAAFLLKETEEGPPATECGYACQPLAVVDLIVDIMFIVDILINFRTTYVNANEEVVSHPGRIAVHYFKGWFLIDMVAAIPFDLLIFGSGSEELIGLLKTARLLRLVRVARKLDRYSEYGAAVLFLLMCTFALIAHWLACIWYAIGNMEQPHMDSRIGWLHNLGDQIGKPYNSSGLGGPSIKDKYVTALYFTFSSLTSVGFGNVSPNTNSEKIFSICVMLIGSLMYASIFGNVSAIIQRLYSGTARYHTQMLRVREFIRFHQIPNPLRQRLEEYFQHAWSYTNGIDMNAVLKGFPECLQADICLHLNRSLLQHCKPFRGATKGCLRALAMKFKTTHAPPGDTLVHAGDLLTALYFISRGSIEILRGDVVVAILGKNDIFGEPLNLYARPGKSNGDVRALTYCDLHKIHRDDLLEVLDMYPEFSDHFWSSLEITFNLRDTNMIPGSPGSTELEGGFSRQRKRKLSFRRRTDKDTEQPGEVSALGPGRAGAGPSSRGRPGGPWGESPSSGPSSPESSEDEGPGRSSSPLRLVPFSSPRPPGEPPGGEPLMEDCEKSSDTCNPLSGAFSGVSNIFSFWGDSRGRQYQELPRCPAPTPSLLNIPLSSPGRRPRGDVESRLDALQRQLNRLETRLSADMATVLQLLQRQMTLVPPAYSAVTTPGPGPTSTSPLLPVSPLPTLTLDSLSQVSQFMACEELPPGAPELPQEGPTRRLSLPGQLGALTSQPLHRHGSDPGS
# Procedure: (§2) Inhibitory effect of the compound on hERG was detected using automated electrophysiological patch clamp QPatch. The cells used in this assay were CHO cell lines (supplied by Sophion Bioscience, Denmark) transfected with hERG cDNA and stably expressing hERG channel at cell passage number of P24. The cells were cultured in a medium containing the following components (all purchased from Invitrogen): ham's F12 medium, 10% (v/v) inactivated fetal bovine serum, 100 μg/mL hygromycin B and 100 μg/mL Geneticin. CHO hERG cells were grown in a culture dish containing the above culture solution and cultured in an incubator containing 5% CO2 at 37° C.
# (§3) Extracellular buffer (2 mM CaCl2, 1 mM MgCl2, 4 mM KCl, 145 mM NaCl, 10 mM Glucose, 10 mM HEPES, pH: about 7.4, osmotic pressure: about 305 mOsm) and intracellular buffer (5.374 mM CaCl2, 1.75 mM MgCl2, 120 mM KCl, 10 mM HEPES, 5 mM EGTA, 4 mM Na-ATP, pH: about 7.25, osmotic pressure: about 295 mOsm) were prepared. […]
# (§4) The assay data were analyzed by Qpatch analysis software supplied by Sophion, Excel, Graphpad Prism and the like.
# [4] = molecular target: T1, hERG channel; settings: hERG IC50 in μM divided by ATX IC50 in nM as printed
# Procedure: as §2, §3, §4
# [5] = In vivo pharmacokinetic assay in rats
# Procedure: (§1) In vivo pharmacokinetic assay in rats was performed, wherein the used rats were 6 male SD rats weighing 180-240 g and fasted overnight. […] Blood samples were centrifuged at 8000 rpm for 6 min at 4° C., and plasma was collected and stored at −20° C. The plasma at each time point was taken and added with 3-5 times of acetonitrile solution containing the internal standard for mixing, and the mixed solution was subjected to vortex mixing for 1 min, and centrifuging at 4° C. for 10 min at 13000 rpm. The supernatant was taken and added with 3 times of water for mixing. A proper amount of the mixed solution was taken for LC-MS/MS analysis. The major pharmacokinetic parameters were analyzed using WinNonlin 7.0 software and a non-compartmental model.
# [6] = molecular target: ATX enzymatic activity in human plasma (Homo sapiens (Human), UniProt Q13822); assay: biochemical
# Procedure: Whole blood from healthy volunteers was collected and anticoagulated with heparin. The blood collection tubes were centrifuged at 3000 rpm for 10 min, and plasma was taken and stored at −80° C. for later use.
# The compounds were serially diluted with DMSO according to the standard concentration requirements, and then 3 μL of the compound was taken and added to a 96-well plate. 147 μL of PBS was added to each well containing 3 μL of the compound, and the mixed solution was mixed well, and then 50 μL of the mixed solution was taken out and added to a new 96-well plate. The human plasma was taken out of −80° C. refrigerator and thawed by rapid shaking in a 37° C. water bath, and 50 μL of human plasma was added to a 96-well plate containing 50 μL of diluted compounds (the final system was 1% DMSO). […]
# After the incubation, the blank group was thawed on ice and transferred to the incubation plate. […] The peak areas of LPA18:2 and internal standard LPA17:0 were detected by LC-MSMS mass spectrometry.
# The peak area ratio of LPA18:2 to internal standard LPA17:0 was calculated, and the generation inhibition rate of LPA18:2 was calculated according to the following formula: […]
# According to the inhibition rate of different concentrations of the compound, the IC50 values of the compound were calculated for inhibition of ATX enzymatic activity in human plasma.
# [7] = test system: Bleomycin-induced IPF model; assay: Bleomycin-induced IPF model in rats; format: in vivo; settings: 30 mg/kg oral twice a day, 21 days
# Procedure: The bleomycin-induced IPF model (idiopathic pulmonary fibrosis model) was performed at a dose of 5 U/kg using male BN rats weighing 180-240 g. […] The oral intragastric administration was performed twice a day on the second day after the modeling. The administration group was given a dose of 30 mg/kg at one time, and the vehicle control group was given blank vehicle for 21 consecutive days. During dosing, body weights were weighed every three days. On the 21st day of administration, bronchoalveolar lavage was performed 2 h after the first administration, the inflammatory cells in the lavage fluid were counted, and the relevant biomarkers in the lavage fluid supernatant were detected; after lavage, the left lung of the rat was harvested for fixation, and Masson's trichrome staining was used for pathological scoring of fibrosis and the remaining lung lobes were cryopreserved. The bronchoalveolar lavage fluid supernatant and freshly cryopreserved lung tissue of compound 3 group were taken, and the TGF-β1 protein content and total protein amount were detected by ELISA method, and the amount of TGF-β1 per mg of total protein was calculated.
# [8] = Thermodynamic solubility assay; format: physicochemical; settings: thermodynamic from solid
# Procedure: The compounds were weighed out accurately, added to the prepared phosphate buffered saline at pH 7.4, FeSSIF solution at pH 5.8 and FaSSGF solution at pH 1.6 to prepare a solution at a concentration of 4 mg/mL, and the prepared solution was shaken at 1000 rpm for 1 h, and then incubated overnight at room temperature. The incubated solution was centrifuged at 12000 rpm for 10 min to remove undissolved particles, and the supernatant was transferred to a new centrifuge tube. After the supernatant was diluted properly, the supernatant was added with an acetonitrile solution containing an internal standard, and quantified by adopting a standard curve prepared by the same matrix.
# [9] = In vivo pharmacokinetic assay in mice; settings: male, ICR, mouse, plasma
# Procedure: as §1
# In vivo pharmacokinetic assay in mice was performed, wherein the used mice were 18 male ICR mice weighing 20-25 g and fasted overnight. […] The rest of the procedure was performed in the same manner as in the pharmacokinetic assay in rats.
# [10] = male, SD, rat, plasma, intravenous injection 1 mg/kg
# [11] = male, SD, rat, plasma, oral intragastric administration 10 mg/kg
# [12] = oral intragastric administration 10 mg/kg
smiles,measurement,setting,value
"C[C@H](Cc1cnn[nH]1)OCC(=O)N1Cc2cnc(NC3Cc4ccccc4C3)nc2C1 [Compound of formula (I), (R)-2-((1-(1H-1,2,3-triazol-5-yl)propan-2-yl)oxy)-1-(2-((2,3-dihydro-1H-inden-2-yl)amino)-5,7-dihydro-6H-pyrrolo[3,4-d]pyrimidin-6-yl)ethan-1-one]",IC50,[1],1.59 nM
same,T1/2 of the liver microsome stability relative to the control compound,[2],more than 2 times
same,Remaining percentage of compound after 30 min of incubation (%),"[2]; NADPH, 37° C.",63.7%
same,half-life at 1.5 μM,"[2]; NADPH, 37° C.",53.6 min
same,IC50,[3],9480 nM
same,hERG IC50/ATX IC50,[4],9.48/1.59 = 6.0
same,clearance (CL) in rats relative to that of the control compound,[5],about ⅙
same,AUC(0-t),[5]; [10],3650 ng·h/mL
same,clearance,[5]; [10],4.67 mL/min/kg
same,half-life,[5]; [10],30 min
same,Vd,"[5]; male, SD, rat, plasma, intravenous injection 1 mg/kg, read-out: Vz",0.21 L/kg
same,AUC(0-t),[5]; [11],20700 ng·h/mL
same,Cmax,[5]; [11],15800 ng/mL
same,Tmax,[5]; [11],19.8 min
same,half-life,[5]; [11],154 min
same,AUC0-t of oral administration relative to the control compound,[5]; oral,4.2 times
same,Cmax of oral administration relative to the control compound,[5]; oral,6.1 times
same,IC50,[6],4.7 nM
same,content of TGF-β1 in freshly cryopreserved lung tissue,"[7]; ELISA, FIG. 44",significantly lower than that of the vehicle control group
same,content of TGF-β1 in the bronchoalveolar lavage fluid supernatant,"[7]; ELISA, FIG. 44",significantly lower than that of the vehicle control group
same,weight loss of the animals,[7]; FIG. 43,significantly less than that of the control compound group
same,solubility,"[8]; FaSSGF solution, fassgf or other biorelevant, heading: Solubility FaSSGF, FaSSGF, pH 1.6, room temperature overnight",1.04 mg/mL
same,solubility,"[8]; FeSSIF solution, FeSSIF, pH 5.8, room temperature overnight, read-out: Solubility FeSSIF (pH 5.8)",260 mg/mL
same,solubility,"[8]; phosphate buffered saline, aqueous buffer, PBS, pH 7.4, room temperature overnight, read-out: Solubility PBS (pH 7.4)",107 mg/mL
same,AUC(0-t),[9]; intravenous injection 1 mg/kg,626 ng·h/mL
same,clearance,[9]; intravenous injection 1 mg/kg,26.7 mL/min/kg
same,half-life,[9]; intravenous injection 1 mg/kg,22.8 min
same,Vd,"[9]; intravenous injection 1 mg/kg, read-out: Vz",0.88 L/kg
same,AUC(0-t),[9]; [12],6370 ng·h/mL
same,Cmax,[9]; [12],6360 ng/mL
same,Tmax,[9]; [12],15 min
same,half-life,[9]; [12],52.2 min
